# Test results: patent publication US9139523B2, “5-HT2B receptor antagonists” (Janssen Pharmaceutica, NV, priority 2010, dated 2015)
# System: monocrotaline-induced pulmonary arterial hypertension
# Experiment: Monocrotaline-induced pulmonary arterial hypertension in the rat
# Format: in vivo
# Conditions: for MAP / PAAT / RV/(LV + S) / RVP: Day 21, mean ± SD
# Method: Compound (−)-17 was tested in monocrotaline-induced pulmonary arterial hypertension in the rat (see e.g., Stenmark et al, 2009, Am J Physiol Lung Cell Mol Physiol 297, L1013-L1032). Measurements included: mean arterial blood pressure and right ventricular pressure in vivo, ratio of right ventricular weight to left ventricular weight plus septum as an index of right ventricular hypertrophy, pulmonary artery acceleration time, and histological assessement of muscularization of pulmonary arteries.
# Monocrotaline was dissolved in 1 N HCl and then into distilled water, and pH was adjusted to 7.4 using NaOH. A single dose of 60 mg/kg monocrotaline was administered subcutaneously on day 0 to three groups of male Sprague Dawley rats. The test article Compound (−)-17 was dissolved in 20% hydroxypropyl-beta-cyclodextrin with NaOH, HCl and mannitol in pyrogen-free water and administered orally by gavage (10 ml/kg) once daily from day 1 for 21 days at 10 mg/kg and 50 mg/kg. […] Corresponding volumes of 20% hydroxypropyl-beta-cyclodextrin vehicle were administered orally according to the same protocol in a third group of animals.
# [1] = 10 mg/kg p.o. once daily 21 days
# [2] = 50 mg/kg p.o. once daily 21 days
# [3] = rat, 10 mg and 50 mg p.o. once daily, three weeks
smiles,measurement,setting,value
"COc1cc(N)c(Cl)cc1C(=O)NC1CCN(CCCOc2ccc(F)cc2)CC1(F)F (single isomer, unassigned) [Compound (−)-17, 4-amino-5-chloro-N-{3,3-difluoro-1-[3-(4-fluorophenoxy)-propyl]-piperidin-4-yl}-2-methoxybenzamide]",MAP,[1],93.7 ± 14.11 mmHg
same,PAAT,[1],15.91 ± 2.76 ms
same,RV/(LV + S),[1],0.46 ± 0.08
same,RVP,[1],43.18 ± 7.38 mmHg
same,MAP,[2],97.58 ± 9.74 mmHg
same,PAAT,[2],15.42 ± 2.62 ms
same,RV/(LV + S),[2],0.41 ± 0.08
same,RVP,[2],42.85 ± 11.55 mmHg
same,toxicity of three-week treatment,"rat, 10 mg and 50 mg p.o. once daily",non-toxic
same,effect on mean arterial blood pressure (MAP),[3],no effect
same,effect on pulmonary artery acceleration time (PAAT),[3],increased
same,effect on right ventricular hypertrophy RV/(LV+S),[3],reduced
same,effect on right ventricular pressure (RVP),[3],reduced
same,monocrotaline-induced thickening of wall of small pulmonary arteries,"rat, 10 mg p.o. three weeks (P<0.005)",reduced
same,monocrotaline-induced thickening of wall of small pulmonary arteries,"rat, 50 mg/kg p.o. three weeks (P=0.0539)",reduced
